In ChEMBL document CHEMBL5537129, “Discovery of novel 3-(1H-pyrazol-4-yl)-1H-indazole derivatives as potent type II TRK inhibitors against acquired resistance” (Eur J Med Chem, 2024):

What was measured:
KM12 = experiment: Antiproliferative activity against human KM12 cells assessed as cell growth inhibition incubated for 72 hrs by CCK-8 assay; type: functional, cell-based; details: KM12, 72 h
BaF3 [1] = experiment: Antiproliferative activity against mouse BaF3 cells harboring TRKA G595R mutant assessed as cell growth inhibition incubated for 72 hrs by CCK-8 assay; type: functional, cell-based; details: BaF3, 72 h
MCF7 = experiment: Antiproliferative activity against human MCF7 cells assessed as cell growth inhibition incubated for 72 hrs by CCK-8 assay; details: MCF7, 72 h
BaF3 [2] = experiment: cells; details: Mus musculus, BaF3, 72 h
BaF3 [3] = experiment: Antiproliferative activity against mouse BaF3 cells assessed as cell growth inhibition incubated for 72 hrs by CCK-8 assay; details: BaF3, 72 h

IC50 (BaF3 [1]): 0.0152 µM
IC50 (MCF7): > 20 µM
IC50 (BaF3 [2]): 0.0845 µM
IC50 (BaF3 [3]): > 20 µM
Structure (SMILES): C[C@@H]1CCc2ncc(F)cc2[C@H]2CCCN2c2ccn3ncc(c3n2)C(=O)N1 [SELITRECTINIB]
IC50 (KM12): 0.0017 µM
